From patent US20230345940A1, “INSECTICIDE” (Western Sydney University, priority 2020, published 2023)
Like-named read-outs stand apart in the source and are kept apart here.

What was measured:
Format in all cases: in vivo
[1] = test system: two-spotted spider mite (TSM), Tetranychus urticae Koch; experiment: Potter spray tower bioassay on leaf discs, two-spotted spider mite; details: 1.0% w/v; for mortality at 1 % strength: Tetranychus urticae, foliar
Text: Tetranychus urticae Koch, (Acari: Tetranychidae), commonly known as two-spotted spider mite is a cosmopolitan, phytophagous species, and an important agricultural pest in many temperate and sub-tropical countries. It is highly polyphagous, and feeds primarily on plant foliage. Tetranychus urticae Koch UWS 1 (organophosphate-susceptible) strain, originally obtained from Dr Grant Herron, NSW
Department of Primary Industries, Menangle NSW, Australia, but had been maintained at WSU Hawkesbury campus for approximately 18 years. They were reared on potted French beans, Phaseolus vulgaris var Redland Pioneer (in a constant temperature room maintained at 25±2° C., 65±5% RH and 14 h D: L photoperiod. The culture was reared on potted dwarf French bean (Phaseolus vulgaris L. var. Redland Pioneer) plants grown in a composted pinebark-based potting medium in a large (7.0 m (1)×6.0 m (w)×4.0 m (h)), pesticide-free, constant temperature room (28-30° C., 50% RH, 18:6, D:L). Only young gravid female two-spotted mites were selected for bioassay.
For the two-spotted spider mite, screening of each sample was conducted on 20-40 adult female mites, which were evenly distributed on 1-3 French bean leaf discs (25 mm diam.) contained in 90 mm diameter Petri dishes. The leaf discs were placed with their underside uppermost on moist absorbent cotton wool. Water was added to the dishes daily to prevent desiccation of the leaf discs and preventing the mites from escaping the leaf disc.
A 3.0 mL aliquot was applied to each Petri dish with a Potter precision spray tower as described by Herron et al., Potter spray tower bioassay of selected citrus pests to petroleum spray oil, Journal of the Australian Entomological Society 34, 253-263, 1995.
The average weight of the solution sprayed on each dish was calculated to be 5.385 mg/cm^2 or 0.05385 mg/cm^2 active ingredient (a.i.). Dishes were retained under laboratory conditions (24±2° C., 50±15% RH) for post-treatment observations. Mortality was recorded 24 h and 48 h after treatment (HAT). Death was recognised by the absence of movement when the test organisms were mechanically stimulated by prodding with a brush.
(§1) For each batch of investigations, control treatments were conducted, with methodology identical to other treatments. The control treatment solutions comprised 3 mL aliquots of 200 ppm Triton X-100 in distilled water and acetone or hexane at the same concentration as the test solutions. Investigations were discarded if control mortality exceeded 15%. Treatment mortality was calculated and is presented as corrected mortality, to account for any control mortality (Abbott WS., A method of computing the effectiveness of an insecticide. Journal of Economic Entomology, 18, 265-267, 1925).

[2] = test system: neonate Helicoverpa armigera; experiment: Potter spray tower bioassay on leaf discs, Helicoverpa neonates; details: 1.0% w/v; for mortality at 1 % strength: Helicoverpa armigera, foliar
Text: Helicoverpa armigera (Hubner) (Lepidoptera: Noctuidae), commonly known as the cotton bollworm or as heliothis, is a widespread species, with an extensive host range (see, e.g., https://www.cabi.org/isc/datasheet/26757). It typically feeds selectively on high protein plant parts, such as flowers, buds and fruits. Helicoverpa armigera was obtained as fresh eggs from AgBiTech Pty. Ltd, Glenvale QLD, Australia, or CSIRO Agriculture and Food, Cotton Research Institute, Myall Vale NSW, Australia.
Eggs (50-75) were transferred with a fine camel hair brush onto 90 mm Whatman No. 1 filter paper partially moistened with distilled water and thin slices from the artificial medium supplied by AgBiTech were placed on the filter paper as a source of food for the hatching caterpillars. The eggs were left to hatch under laboratory conditions of 25±3° C. and 65±10% RH. Hatching occurred within 24 h and bioassays were carried out on neonate larvae with an average weight of […].
For Helicoverpa, neonate larvae 4-12 h after hatching were transferred individually to a cotton plant leaf disc (35 mm diameter) mounted with its lower side uppermost on 1% agar in an Easy Grip Tissue Culture Dish dimensions 35×10 mm (Corning Incorporated, Corning NY, USA). […] Thus, each replicate comprised 4 neonates.
Following spraying, the small dishes were covered with a perforated plastic sheet and then placed in plastic insect cages previously described for aphid bioassays. The number of dishes sprayed per sample was 4-10. Dishes were retained under laboratory conditions (24±2° C., 50±15% RH) for post-treatment observations. Mortality counts were conducted at 24 and 48 HAT. Absence of the caterpillar movement when prodded with a fine brush was taken as the criterion of death.
as §1

[3] = test system: cotton aphid, Aphis gossypii; experiment: Potter spray tower bioassay on leaf discs, cotton aphid; details: 1.0% w/v
Description: Aphis gossypii (susceptible strain) (Hemiptera: Aphididae), was established as a culture from material supplied by Dr Grant Herron, NSW Department of Primary Industries, Menangle NSW, Australia. Aphids were reared on potted Gossypium hirsutum L. (Malvaceae) grown from non-insecticide-treated conventional cotton seed, supplied by Dr Robert Mensah, NSW Department of Primary Industries, Narrabri NSW, Australia. The culture was maintained in a temperature-controlled greenhouse chamber set at 27±3° C. and 55±10% RH (relative humidity) and natural light. Only young adult females were selected for bioassay.
For the cotton aphid, parthenogenetic adult female aphids were collected from the cultures on cotton plants. Fifteen adults were transferred using a fine camel hair brush onto the lower side of a respective leaf disc 50 mm diameter mounted on 1.0% w/v agar in a plastic insect cage measuring 50 mm diameter×15 mm height plastic insect breeding 50 mm diameter×15 height (SPL Life Sciences, Korea).
Aliquots (3 mL) of the 1% w/v extracts were applied with a Potter Spray Tower for each treatment, as described above, and the spray was allowed to partially dry before the cage was covered with its lid and the sides of the cage sealed with Parafilm M®.
Dishes were retained under laboratory conditions (24±2° C., 50±15% RH) for post-treatment observations. […]

## 10′-oxo-8-methyl podopyrone [Fraction 44]
[1]
  Corrected percentage mortality TSM 24 HAT: 100.0%
  Corrected percentage mortality TSM 48 HAT: 100.0%
[2]
  Corrected percentage mortality Helicoverpa 24 HAT: 100.0%
  Corrected percentage mortality Helicoverpa 48 HAT: 100.0%
[3]
  Corrected percentage mortality Cotton aphid 24 HAT: 100.0%

## CCc1c(OC)oc(CCCCCCCCCC(C)=O)c(C)c1=O [Fraction 42, 10′-oxopodopyrone]
[1]; read-out: Corrected percentage mortality TSM 24 HAT
  mortality at 1 % strength: 100%
[1]; read-out: Corrected percentage mortality TSM 48 HAT
  mortality at 1 % strength: 100%
[2]; read-out: Corrected percentage mortality Helicoverpa 24 HAT
  mortality at 1 % strength: 0%
[2]; read-out: Corrected percentage mortality Helicoverpa 48 HAT
  mortality at 1 % strength: 0%
